Measured values published in US20090105218A1, “CRTH2 Receptor Ligands For Therapeutic Use” (7TM PHARMA A/S, priority 2004, published 2009).

These compounds were tested against T1, human CRTH2 receptor (Homo sapiens, UniProt Q9Y5Y4, V204A) (assay: CRTH2 receptor binding assay ([3H]PGD2 competition on whole transfected cells)). Conditions: competition binding with 0.1 nM [3H]PGD2, whole cells expressing CRTH2, 3 h at 4° C.
T1 construct: expressed in transfected cells; host or cells: COS-7 (transient transfection)
T1 sequence (Q9Y5Y4 1-395 V204A): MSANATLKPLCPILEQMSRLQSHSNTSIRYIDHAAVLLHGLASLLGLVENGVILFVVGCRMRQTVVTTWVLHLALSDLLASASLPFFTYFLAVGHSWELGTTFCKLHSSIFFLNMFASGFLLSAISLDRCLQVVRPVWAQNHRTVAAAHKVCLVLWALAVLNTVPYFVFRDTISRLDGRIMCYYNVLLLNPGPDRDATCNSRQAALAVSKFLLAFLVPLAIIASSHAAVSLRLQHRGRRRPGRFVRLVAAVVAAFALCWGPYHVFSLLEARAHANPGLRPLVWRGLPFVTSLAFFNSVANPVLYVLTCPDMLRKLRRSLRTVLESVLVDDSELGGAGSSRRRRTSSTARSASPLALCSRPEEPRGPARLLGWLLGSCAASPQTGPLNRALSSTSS
Text: Generation/origin of the cDNA Constructs. The coding sequence of the human CRTH2 receptor (genbank accession no NM_004778) was amplified by PCR from a human hippocampus cDNA library and inserted into the pcDNA3.1(+) expression vector (invitrogen) via 5′ HindIII and 3′ EcoRI. The sequence identity of the construct was verified by restriction endonuclease digests and sequencing in both directions on an ABI Prism (Applied Biosystems, Foster City, Calif.).
Cell Culture and Transfection. COS-7 cells were grown in Dulbecco's modified Eagle's medium (DMEM) 1885 supplemented with 10% fetal bovine serum, 100 units/ml penicillin, […] streptomycin, and kept at 37° C. in a 10% CO2 atmosphere. HEK293 cells were maintained in Minimum Essential medium (MEM) supplemented with 10% (v/v) heat inactivated fetal calf serum (HIFCS), 2 mM Glutamax™-I, 1% non essential amino acids (NEAA), 1% sodium pyruvate and 10 μg/ml gentamicin. For binding experiments, COS7 cells were transiently transfected with the CRTH2 receptor using a calcium phosphate-DNA coprecipitation method with the addition of chloroquine (as described by Holst B, Hastrup H, Raffetseder U, Martini L, Schwartz T W. J Biol. Chem. 2001 Jun. 8; 276(23):19793-9.)
Binding assay. 24 h after transfection COS-7 cells were seeded into 96 well plates at a density of 30.000 cells/well. Competition binding experiments on whole cells were then performed about 18-24 h later using 0.1 nM [^3H]PGD2 (NEN, 172 Ci/mmol) in a binding buffer consisting of HBSS (GIBCO) and 10 mM HEPES. Competing ligands were diluted in DMSO which was kept constant at 1% (v/v) of the final incubation volume. Total and nonspecific binding were determined in the absence and presence of 10 μM PGD2. Binding reactions were routinely conducted for 3 h at 4° C. and terminated by 2 washes (100 μl each) with ice cold binding buffer. Radioactivity was determined by liquid scintillation counting in a TOPCOUNTER (Packard) following over night incubation in Microscint 20. Stable HEK293 cells were seeded at a density of 30.000 cells/well 18-24 h prior to the binding assay which was performed essentially as described for COS7 cells above. Determinations were made in duplicates.
Curve analysis was performed with the GraphPadPrism software 3.0 (Graphpad Prism Inc., San Diego, USA) and IC50 values were calculated as a measure of the antagonistic potencies.

IC50 | Structure (SMILES)
< 500 nM | Cc1c(S(=O)(=O)Nc2ccc(Br)cc2)csc1C(=O)Nc1ccccc1C(=O)O [B25, 2-[4-(4-Bromophenylsulfamoyl)-3-methylthiophene-2-carbonylamino]-benzoic acid]
500 to 5000 nM | O=C(Nc1ccccc1C(=O)O)c1ccc(Br)c(S(=O)(=O)Nc2ccc(Cl)nc2)c1 [B18, 2-[4-Bromo-3-(6-chloropyridin-3-ylsulfamoyl)benzoylamino]benzoic acid]
< 500 nM | O=C(Nc1ccccc1C(=O)O)c1ccc(Br)c(S(=O)(=O)Nc2cccc(Oc3ccccc3)c2)c1 [B21, 2-[4-Bromo-3-(3-phenoxyphenylsulfamoyl)benzoylamino]benzoic acid]
500 to 5000 nM | Cc1ccc(C(=O)Nc2ccccc2C(=O)O)cc1S(=O)(=O)Nc1ccc(F)cc1 [B63]
< 500 nM | O=C(Nc1ccccc1C(=O)O)c1ccc(Br)c(S(=O)(=O)Nc2ccc(OC(F)(F)F)cc2)c1 [B19, 2-[4-Bromo-3-(4-trifluoromethoxyphenylsulfamoyl)benzoylamino]benzoic acid]
< 500 nM | O=C(Nc1ccccc1C(=O)O)c1ccc(Br)c(S(=O)(=O)Nc2ccc(I)cc2)c1 [B23, 2-[4-Bromo-3-(4-iodophenylsulfamoyl)benzoylamino]benzoic acid]
500 to 5000 nM | O=C(Nc1ccccc1C(=O)O)c1cc(S(=O)(=O)Nc2ccc(Br)cc2)ccc1Cl [B58]
> 5000 nM | CC(=O)c1ccc(NS(=O)(=O)c2cc(C(=O)Nc3ccccc3C(=O)O)ccc2C)cc1 [B65]
500 to 5000 nM | CCOc1ccc(NS(=O)(=O)c2cc(C(=O)Nc3ccccc3C(=O)O)ccc2C)cc1 [B64]
< 500 nM | Cc1ccc(C(=O)Nc2ccccc2C(=O)O)cc1S(=O)(=O)Nc1cccc(Cl)c1 [B62]
500 to 5000 nM | Cc1ccc(NS(=O)(=O)c2cccc(C(=O)Nc3ccccc3C(=O)O)c2)cc1 [B46]
< 500 nM | Cc1ccc(C(=O)Nc2ccccc2C(=O)O)cc1S(=O)(=O)Nc1ccc(I)cc1 [B59]
< 500 nM | Cc1c(S(=O)(=O)Nc2ccc(I)cc2)csc1C(=O)Nc1ccccc1C(=O)O [B24, 2-[4-(4-Iodophenylsulfamoyl)-3-methylthiophene-2-carbonylamino]benzoic acid]

Continued, compound first:

Structure (SMILES) | IC50
O=C(Nc1ccccc1C(=O)O)c1cccc(S(=O)(=O)N2CCCCC2)c1 [B81] | 500 to 5000 nM
Cc1ccc(S(=O)(=O)N2CCOCC2)cc1C(=O)Nc1ccccc1C(=O)O [B78] | > 5000 nM
CCN(CC)S(=O)(=O)c1cc(C(=O)Nc2ccccc2C(=O)O)ccc1Br [B69] | 500 to 5000 nM
O=C(Nc1ccc(Br)cc1C(=O)O)c1cccc(S(=O)(=O)Nc2ccc(F)cc2)c1 [B29, 5-Bromo-2-[3-(4-fluorophenylsulfamoyl)benzoylamino]benzoic acid] | < 500 nM
COc1ccc(OCC(=O)Nc2cccc(C(=O)Nc3ccccc3C(=O)O)c2)cc1 [B39] | 500 to 5000 nM
O=C(Nc1ccccc1C(=O)O)c1cc(S(=O)(=O)N2CCCCC2)c(Cl)cc1Cl [B70] | < 500 nM
O=C(CCc1ccccc1)Nc1cccc(C(=O)Nc2ccccc2C(=O)O)c1 [B4, 2-[3-(3-Phenylpropionylamino)benzoylamino]benzoic acid] | 500 to 5000 nM
O=C(Nc1ccc(Cl)cc1C(=O)O)c1cccc(S(=O)(=O)Nc2ccc(F)cc2)c1 [B31, 5-Chloro-2-[3-(4-fluorophenylsulfamoyl)benzoylamino]benzoic acid] | < 500 nM
O=C(COc1ccc(Cl)cc1)Nc1cccc(C(=O)Nc2ccccc2C(=O)O)c1 [B1, 2-{3-[2-(4-Chlorophenoxy)acetylamino]benzoylamino}benzoic acid] | < 500 nM
C/C(=C\c1ccccc1)C(=O)Nc1cccc(C(=O)Nc2ccccc2C(=O)O)c1 [B6, 2-[3-((E)-2-Methyl-3-phenylacryloylamino)benzoylamino]benzoic acid] | 500 to 5000 nM
O=C(Nc1ccccc1C(=O)O)c1cccc(S(=O)(=O)N2CCOCC2)c1 [B68] | > 5000 nM
Cc1ccccc1NS(=O)(=O)c1cccc(C(=O)Nc2ccccc2C(=O)O)c1 [B53] | 500 to 5000 nM
O=C(Nc1ccccc1C(=O)O)c1cccc(S(=O)(=O)Nc2ccc(Br)cc2)c1 [B55] | < 500 nM
COc1ccccc1NS(=O)(=O)c1cccc(C(=O)Nc2ccccc2C(=O)O)c1 [B60] | 500 to 5000 nM
COc1cccc(OC)c1C(=O)Nc1cccc(C(=O)Nc2ccccc2C(=O)O)c1 [B38] | 500 to 5000 nM
O=C(Nc1ccccc1C(=O)O)c1cccc(NC(=O)c2ccco2)c1 [B35] | > 5000 nM
O=C(/C=C/c1ccc(OC(F)(F)F)cc1)Nc1cccc(C(=O)Nc2ccccc2C(=O)O)c1 [B2, 2-{3-[(E)-3-(4-Trifluoromethoxyphenyl)acryloylamino]benzoylamino}benzoic acid] | < 500 nM
